Assay results from PubChem BioAssay AID328 (DTP/NCI, 2004).
“And” between values parts separate entries of the source, which are not always exact repeats. Equal entries are not always repeated. Toxic doses and inconclusive results are not listed. Rule for the calls: active = survival T/C of 150% or more; inactive = T/C below 125% in these data.

Test system: BDF1 mice, P388 leukemia ip, median survival T/C
Assay: NCI In Vivo Anticancer Drug Screen. Data for tumor model P388 Leukemia (intraperitoneal) in B6D2F1 (BDF1) mice
Conditions: endpoint: median survival time, higher = longer survival
Outline: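 Reported as T/C, where T is the survival measurement in dosed animals and C the same measurement in vehicle controls.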

[1] = dose: 50.0 mg/kg/injection, schedule: Q01DX009 (ip), vehicle: saline with Tween-80
[2] = dose: 100.0 mg/kg/injection, schedule: Q01DX009 (ip), vehicle: saline with Tween-80
[3] = dose: 200.0 mg/kg/injection, schedule: Q01DX009 (ip), vehicle: saline with Tween-80
[4] = dose: 100.0 mg/kg/injection, schedule: Q04DX003 (ip), vehicle: saline with Tween-80
[5] = dose: 200.0 mg/kg/injection, schedule: Q04DX003 (ip), vehicle: saline with Tween-80

Measured: T/C

CC1=CC(=O)c2ccccc2C1=O
inactive: dose: 8.8 mg/kg/injection, schedule: Q01DX010 (ip), vehicle: carboxymethylcellulose (CMC) 110 % of control | dose: 13.3 mg/kg/injection, schedule: Q01DX010 (ip), vehicle: carboxymethylcellulose (CMC) 110 % of control | dose: 20.0 mg/kg/injection, schedule: Q01DX010 (ip), vehicle: carboxymethylcellulose (CMC) 90 % of control | dose: 30.0 mg/kg/injection, schedule: Q01DX010 (ip), vehicle: carboxymethylcellulose (CMC) 115 % of control

NC(=O)C1(N2CCCCC2)CCN(CCCC(=O)c2ccc(F)cc2)CC1
inactive: dose: 37.5 mg/kg/injection, schedule: Q01DX009 (ip), vehicle: Klucel (hydroxypropylcellulose) (HPC) 107 % of control | dose: 150.0 mg/kg/injection, schedule: Q01DX009 (ip), vehicle: Klucel (hydroxypropylcellulose) (HPC) 117 % of control

O=NN(CCCl)C(=O)Nc1ccccc1
inactive: dose: 18.75 mg/kg/injection, schedule: Q04DX003 (ip), vehicle: saline with Tween-80 104 % of control
active: dose: 8.0 mg/kg/injection, schedule: Q04DX003 (ip), vehicle: saline with Tween-80 233 % of control | dose: 8.25 mg/kg/injection, schedule: Q04DX003 (ip), vehicle: saline with Tween-80 231 % of control | dose: 12.0 mg/kg/injection, schedule: Q04DX003 (ip), vehicle: saline with Tween-80 311 % of control | dose: 12.5 mg/kg/injection, schedule: Q04DX003 (ip), vehicle: saline with Tween-80 272 % of control | dose: 18.0 mg/kg/injection, schedule: Q04DX003 (ip), vehicle: saline with Tween-80 261 % of control

COc1ccc(-c2cc(-c3ccc(Cl)cc3)no2)cc1
inactive: dose: 100.0 mg/kg/injection, schedule: Q01DX009 (ip), vehicle: Klucel (hydroxypropylcellulose) (HPC) 90 % of control | dose: 100.0 mg/kg/injection, schedule: Q04DX003 (ip), vehicle: Klucel (hydroxypropylcellulose) (HPC) 100 % of control | dose: 200.0 mg/kg/injection, schedule: Q01DX009 (ip), vehicle: Klucel (hydroxypropylcellulose) (HPC) 90 % of control | dose: 200.0 mg/kg/injection, schedule: Q04DX003 (ip), vehicle: Klucel (hydroxypropylcellulose) (HPC) 100 % of control | dose: 400.0 mg/kg/injection, schedule: Q01DX009 (ip), vehicle: Klucel (hydroxypropylcellulose) (HPC) 100 % of control | dose: 400.0 mg/kg/injection, schedule: Q04DX003 (ip), vehicle: Klucel (hydroxypropylcellulose) (HPC) 100 % of control

COc1ccc2c3c(c4cc(OC)c(OC)cc4c2c1)C[C@H]1CCCCN1C3
inactive: dose: 0.25 mg/kg/injection, schedule: Q01DX010 (ip), vehicle: saline 100 % of control | dose: 0.5 mg/kg/injection, schedule: Q01DX010 (ip), vehicle: saline 120 % of control | dose: 1.0 mg/kg/injection, schedule: Q01DX010 (ip), vehicle: saline 120 % of control | dose: 2.0 mg/kg/injection, schedule: Q01DX010 (ip), vehicle: saline 91 % of control

CCC1C(=O)NC(=O)C1(C)c1ccccc1 (stereo not given)
active: [1] 191 % of control
inactive: [2] 122 % of control | [3] 120 % of control

C1O[C@@H]1[C@@H]1CO1
inactive: dose: 100.0 mg/kg/injection, schedule: Q01DX006 (ip), vehicle: water 100 % of control | dose: 100.0 mg/kg/injection, schedule: Q01DX010 (ip), vehicle: water 104 % of control and 120 % of control | dose: 200.0 mg/kg/injection, schedule: Q01DX006 (ip), vehicle: water 100 % of control | dose: 225.0 mg/kg/injection, schedule: Q01DX010 (ip), vehicle: water 113 % of control | dose: 300.0 mg/kg/injection, schedule: Q01DX006 (ip), vehicle: water 100 % of control | dose: 300.0 mg/kg/injection, schedule: Q01DX010 (ip), vehicle: water 100 % of control | dose: 335.0 mg/kg/injection, schedule: Q01DX010 (ip), vehicle: water 90 % of control | dose: 400.0 mg/kg/injection, schedule: Q01DX006 (ip), vehicle: water 100 % of control | dose: 400.0 mg/kg/injection, schedule: Q01DX010 (ip), vehicle: water 86 % of control and 95 % of control | dose: 600.0 mg/kg/injection, schedule: Q01DX010 (ip), vehicle: water 90 % of control
active: dose: 200.0 mg/kg/injection, schedule: Q01DX010 (ip), vehicle: water 150 % of control

S=c1nc2[nH]c3ccccc3c2n[nH]1
inactive: dose: 6.25 mg/kg/injection, schedule: Q01DX009 (ip), vehicle: saline with Tween-80 100 % of control | dose: 12.5 mg/kg/injection, schedule: Q01DX009 (ip), vehicle: saline with Tween-80 97 % of control | dose: 25.0 mg/kg/injection, schedule: Q01DX009 (ip), vehicle: saline with Tween-80 88 % of control | [1] 96 % of control | [2] 98 % of control | [3] 96 % of control

ClCCc1cnc[nH]1
inactive: dose: 6.25 mg/kg/injection, schedule: Q04DX003 (ip), vehicle: water 104 % of control | dose: 12.5 mg/kg/injection, schedule: Q04DX003 (ip), vehicle: water 108 % of control | dose: 25.0 mg/kg/injection, schedule: Q04DX003 (ip), vehicle: water 112 % of control | dose: 50.0 mg/kg/injection, schedule: Q04DX003 (ip), vehicle: water 105 % of control | dose: 100.0 mg/kg/injection, schedule: Q04DX003 (ip), vehicle: water 98 % of control

C=C(C)C(=O)NCCC(=O)Oc1ccc([N+](=O)[O-])cc1
inactive: [1] 95 % of control | [2] 87 % of control | [3] 86 % of control

CC(C#N)N(C)C (stereo not given)
inactive: dose: 10.0 mg/kg/injection, schedule: Q01DX009 (ip), vehicle: saline 110 % of control | dose: 10.0 mg/kg/injection, schedule: Q04DX003 (ip), vehicle: saline 95 % of control | dose: 20.0 mg/kg/injection, schedule: Q04DX003 (ip), vehicle: saline 91 % of control | dose: 40.0 mg/kg/injection, schedule: Q04DX003 (ip), vehicle: saline 95 % of control

Cc1cc(NC(=O)Nc2ccc(Cl)cc2)no1
inactive: [1] 100 % of control | [2] 100 % of control | [3] 100 % of control

Cc1cc(N(CCO)CCO)c2ccc3cc4ccccc4cc3c2n1
inactive: [1] 119 % of control | [2] 116 % of control | [3] 94 % of control

CC(=O)N1C(=O)NC(=O)C1(C)c1ccc(Cl)s1 (stereo not given)
inactive: [1] 92 % of control | [2] 97 % of control | [4] 100 % of control | [3] 113 % of control | [5] 100 % of control | dose: 400.0 mg/kg/injection, schedule: Q01DX009 (ip), vehicle: saline with Tween-80 106 % of control

Cc1ccc(S(=O)(=O)[O][Pb]([CH3])([CH3])[CH3])cc1
inactive: dose: 1.5 mg/kg/injection, schedule: Q01DX009 (ip), vehicle: saline 103 % of control

CN(C)c1ccc(NC(=O)Nc2cccc(Cl)c2)cc1
inactive: [4] 95 % of control | [5] 90 % of control | dose: 400.0 mg/kg/injection, schedule: Q04DX003 (ip), vehicle: saline with Tween-80 95 % of control

COc1c2c([n+](C)c3c(OC)cccc13)OC(C(C)C)C2 (stereo not given)
inactive: dose: 0.03 mg/kg/injection, schedule: Q01DX009 (ip), vehicle: saline 109 % of control | dose: 0.06 mg/kg/injection, schedule: Q01DX009 (ip), vehicle: saline 104 % of control | dose: 0.12 mg/kg/injection, schedule: Q01DX009 (ip), vehicle: saline 109 % of control | dose: 0.18 mg/kg/injection, schedule: Q04DX003 (ip), vehicle: saline 100 % of control | dose: 0.25 mg/kg/injection, schedule: Q01DX009 (ip), vehicle: Klucel (hydroxypropylcellulose) (HPC) 104 % of control | dose: 0.25 mg/kg/injection, schedule: Q01DX009 (ip), vehicle: saline 104 % of control and 120 % of control | dose: 0.37 mg/kg/injection, schedule: Q04DX003 (ip), vehicle: saline 118 % of control | dose: 0.5 mg/kg/injection, schedule: Q01DX009 (ip), vehicle: Klucel (hydroxypropylcellulose) (HPC) 104 % of control | dose: 0.5 mg/kg/injection, schedule: Q01DX009 (ip), vehicle: saline 112 % of control | dose: 0.75 mg/kg/injection, schedule: Q04DX003 (ip), vehicle: saline 104 % of control | dose: 1.0 mg/kg/injection, schedule: Q01DX009 (ip), vehicle: Klucel (hydroxypropylcellulose) (HPC) 118 % of control | dose: 1.1 mg/kg/injection, schedule: Q04DX003 (ip), vehicle: saline 90 % of control | dose: 1.7 mg/kg/injection, schedule: Q04DX003 (ip), vehicle: saline 100 % of control | dose: 2.5 mg/kg/injection, schedule: Q04DX003 (ip), vehicle: saline 90 % of control | dose: 3.6 mg/kg/injection, schedule: Q04DX003 (ip), vehicle: saline 86 % of control
